Measurements from patent US8557855B2, “Methods of using ryanodine antagonists in treating neural injury” (Allergan, Inc., priority 2002, dated 2013).

Legend:
[1] = tested on: retinal ganglion cells; assay: NMDA-induced injury of retinal ganglion cells in vivo in rabbits (cell count at RGC layer); details: rabbit
Description: (§1) To evaluate in vivo neuroprotective effects of dantrolene (DTL) on NMDA-induced injury of RGCs an imaging method to count cell numbers at the RGC layer in the isolated retinas was developed. Briefly, two weeks following intravitreal injection of vehicle or various test agents, a rabbit was euthanized and the treated eye was enucleated. A piece of retina (8 mm in diameter) was cut immediately below the optic nerve head, flat-mounted in a plastic chamber filled with HEPES-buffered Ames medium, and imaged at 25 fields in a 5×5 array with a 40× water immersion objective using an Olympus microscope (BX50WI) equipped with an epi-fluorescence unit. The images were taken with a Hamamatsu C4742-95 digital camera and Image-Pro Plus software (V4.5). The total number of neurons at the ganglion cell layer in these 25 fields was counted. The same measurements were conducted in one control group (rabbits treated with vehicle) and 4 test groups treated with 1) NMDA, 2) dantrolene+NMDA, 3) veratridine (Verat) a neurotoxin that damages retinal ganglion cells with intracellular sodium overload, and 4) dantrolene+veratridine. The results from the 4 test groups are normalized with respect to that of control.

[2] = tested on: retinal ganglion cells; assay type: in vivo; details: rabbit, intravitreal injection, two weeks after injection, normalized to vehicle control
Description: as §1

[3] = tested on: retinal ganglion cells; details: cited from earlier work

CN[C@H](CC(=O)O)C(=O)O [NMDA]
loss of cells at the RGC layer caused by NMDA alone ([1]; intravitreal injection, two weeks after injection, normalized to vehicle control): 53%

O=C1CN(N=Cc2ccc(-c3ccc([N+](=O)[O-])cc3)o2)C(=O)N1 [dantrolene, 1-[[5-(p-Nitrophenyl)furfurylidene]amino]hydantoin]
cell loss caused by veratridine with dantrolene ([2]; veratridine alone 56%): 50%
neuroprotective effect on NMDA-induced damage to ganglion cells (FIG. 1) ([1]; intravitreal injection of NMDA): ameliorated NMDA-induced damage to ganglion cells
NMDA-induced cell death at the RGC layer after pretreatment with dantrolene ([1]; intravitreal injection, two weeks after injection, normalized to vehicle control, NMDA alone 53%): 35%

CC12CC3CC(C)(C1)CC(N)(C3)C2 [memantine]
effect on RGC loss in glaucomatous monkeys [3]: ameliorates RGC loss

COc1ccc(C(=O)O[C@H]2CC[C@@]3(C)[C@@H]4CC[C@H]5[C@]6(O)C[C@H](O)[C@@]7(O)[C@@H](CN8C[C@@H](C)CC[C@H]8[C@@]7(C)O)[C@]6(O)C[C@@]53O[C@]24O)cc1OC [veratridine]
cell loss at the RGC layer caused by veratridine alone [2]: 56%
